Laboratory results published in patent US8334236B2, “Ring-fused 2-pyridone derivatives and herbicides” (Kumiai Chemical Industry Co., Ltd., priority 2009, dated 2012).

Experiments:
Echinochloa crus-galli = test: Test Example 2: herbicidal effects in farmland soil treatment; type: in vivo; set-up: scale not given here; conditions: 1000 g active ingredient per hectare, 21st day after treatment
[1] = test system: Abutilon theophrasti medicus; test: Test Example 3: herbicidal effects in farmland foliar treatment; type: in vivo; set-up: scale not given here; conditions: 1000 g active ingredient per hectare, 14th day after treatment
Description: (§1) 80-cm^2 plastic pots were filled with farmland soil. Seeds of Echinochloa crus-galli (L.) P. Beauv. var. crus-galli, Abutilon theophrasti medicus, and Amaranthus retroflexus were sowed in the pots, and the plants were grown for two weeks in a greenhouse. A wettable powder formulation prepared according to Formulation Example 1 was diluted with water, and the dilution was applied by foliar treatment by spraying with a small sprayer over the whole plant from the upper part, in an amount equivalent to 1000 liters per hectare, such that 1000 g of the active ingredient was applied per hectare. Thereafter, the plants were grown in a greenhouse, and on the 14th day after the treatment, the herbicidal effects were investigated according to the criteria described in Table 71 shown above.

Amaranthus retroflexus [2] = test: as above; type: in vivo; set-up: scale not given here; conditions: 1000 g active ingredient per hectare, 14th day after treatment
Description: as §1

[3] = test system: Echinochloa crus-galli (L.) P. Beauv. var. crus-galli; test: as above; type: in vivo; set-up: scale not given here; conditions: 1000 g active ingredient per hectare, 14th day after treatment
Description: as §1

[4] = test system: Scirpus juncoides Roxb. var. ohwianus. T. Koyama; test: Test Example 1: herbicidal effects in paddy field soil treatment; type: in vivo; set-up: scale not given here; conditions: 1000 g active ingredient per hectare, 21st day after treatment
Description: (§2) 100-cm^2 plastic pots were filled with paddy field soil. After puddling and leveling, seeds of Echinochloa oryzicola Vasing, Monochoria vaginalis (Burm. f.) Presl var. plantaginea (Roxb.) Solms-Laub., and Scirpus juncoides Roxb. var. ohwianus. T. Koyama were sowed in the pots, and the soil was waterlogged to a water depth of 3 cm. On the next day, a wettable powder formulation prepared according to Formulation Example 1 was diluted with water, and the dilution was added dropwise onto the water surface. The amount of application was an amount equivalent to 1000 g of the active ingredient per hectare. Thereafter, the plants were grown in a greenhouse, and on the 21st day after the treatment, the herbicidal effects were investigated according to the criteria described in Table 71.
(§3) In addition, comparative compound A, comparative compound B, comparative compound C, and comparative compound D in the tables represent Compound Nos. 70, 34, 32, and 31, respectively, as described in EP-283261. The structural formulas of these compounds are presented below.

[5] = test system: Monochoria vaginalis (Burm. f.) Presl var. plantaginea (Roxb.) Solms-Laub.; test: as above; type: in vivo; set-up: scale not given here; conditions: 1000 g active ingredient per hectare, 21st day after treatment
Description: as §2, §3

[6] = test system: Echinochloa oryzicola Vasing; test: as above; type: in vivo; set-up: scale not given here; conditions: 1000 g active ingredient per hectare, 21st day after treatment
Description: as §2, §3

Setaria viridis [7] = test: Test Example 3: herbicidal effects in farmland foliar treatment; type: in vivo; set-up: scale not given here; conditions: 1000 g active ingredient per hectare, 14th day after treatment
Setaria viridis [8] = test: Test Example 2: herbicidal effects in farmland soil treatment; type: in vivo; set-up: scale not given here; conditions: 1000 g active ingredient per hectare, 21st day after treatment
[9] = test system: Abutilon theophrasti medicus; test: Test Example 2: herbicidal effects in farmland soil treatment; type: in vivo; set-up: scale not given here; conditions: 1000 g active ingredient per hectare, 21st day after treatment
Description: as §1, with “of” for “of Echinochloa crus-galli (L.) P. Beauv. var. crus-galli,”, “medicus” for “medicus,”, “soil was covered.” for “the plants were grown for two weeks in a greenhouse.”, “uniformly sprayed on the soil surface” for “applied by foliar treatment by spraying”, “sprayer,” for “sprayer over the whole plant from the upper part,”, “21st” for “14th”

Amaranthus retroflexus [10] = test: as above; type: in vivo; set-up: scale not given here; conditions: 1000 g active ingredient per hectare, 21st day after treatment
Description: as §1, with “of” for “of Echinochloa crus-galli (L.) P. Beauv. var. crus-galli,”, “medicus” for “medicus,”, “soil was covered.” for “the plants were grown for two weeks in a greenhouse.”, “uniformly sprayed on the soil surface” for “applied by foliar treatment by spraying”, “sprayer,” for “sprayer over the whole plant from the upper part,”, “21st” for “14th”

Cn1c(=O)c(C(=O)C2=C(O)CCCC2=O)cc2cccnc21 [II-2, 3-(2-hydroxy-6-oxo-1-cyclohexenecarbonyl)-1-methyl-1,8-naphthyridin-2(1H)-one]
4: Herbicidal effect index, Setaria viridis (Setaria viridis [7])
5: Herbicidal effect index, Echinochloa crus-galli (Echinochloa crus-galli) | Herbicidal effect index, Abutilon theoprasti [1] | Herbicidal effect index, Amaranthus retroflexus (Amaranthus retroflexus [2]) | Herbicidal effect index, Echinochloa crus-galli [3] | Herbicidal effect index, Scirpus juncoides [4] | Herbicidal effect index, Monochoria vaginalis [5] | Herbicidal effect index, Echinochloa oryzicola [6] | Herbicidal effect index, Setaria viridis (Setaria viridis [8]) | Herbicidal effect index, Abutilon thophrasti [9] | Herbicidal effect index, Amaranthus retroflexus (Amaranthus retroflexus [10])
151 to 153 °C: melting point

CCSCn1c(=O)c(C(=O)C2=C(O)CCCC2=O)cc2cccnc21 [II-19, 1-(ethylthiomethyl)-3-(2-hydroxy-6-oxo-1-cyclohexenecarbonyl)-1,8-naphthyridin-2(1H)-one]
4: Herbicidal effect index, Echinochloa crus-galli (Echinochloa crus-galli) | Herbicidal effect index, Setaria viridis (Setaria viridis [8])
108 to 110 °C: melting point
5: Herbicidal effect index, Abutilon theoprasti [1] | Herbicidal effect index, Amaranthus retroflexus (Amaranthus retroflexus [2]) | Herbicidal effect index, Echinochloa crus-galli [3] | Herbicidal effect index, Scirpus juncoides [4] | Herbicidal effect index, Monochoria vaginalis [5] | Herbicidal effect index, Echinochloa oryzicola [6] | Herbicidal effect index, Setaria viridis (Setaria viridis [7]) | Herbicidal effect index, Abutilon thophrasti [9] | Herbicidal effect index, Amaranthus retroflexus (Amaranthus retroflexus [10])

O=C1CCCC(O)=C1C(=O)c1cc2cccnc2n(-c2ccccc2)c1=O [II-41, 3-(2-hydroxy-6-oxo-1-cyclohexenecarbonyl)-1-phenyl-1,8-naphthyridin-2(1H)-one]
212 to 214 °C: melting point
5: Herbicidal effect index, Echinochloa crus-galli (Echinochloa crus-galli) | Herbicidal effect index, Abutilon theoprasti [1] | Herbicidal effect index, Amaranthus retroflexus (Amaranthus retroflexus [2]) | Herbicidal effect index, Echinochloa crus-galli [3] | Herbicidal effect index, Scirpus juncoides [4] | Herbicidal effect index, Monochoria vaginalis [5] | Herbicidal effect index, Echinochloa oryzicola [6] | Herbicidal effect index, Setaria viridis (Setaria viridis [7]) | Herbicidal effect index, Setaria viridis (Setaria viridis [8]) | Herbicidal effect index, Abutilon thophrasti [9] | Herbicidal effect index, Amaranthus retroflexus (Amaranthus retroflexus [10])

Cc1cc(-n2c(=O)c(C(=O)C3=C(O)CCCC3=O)cc3cccnc32)no1 [II-63, 3-(2-hydroxy-6-oxo-1-cyclohexenecarbonyl)-1-(5-methyl-3-isoxazolyl)-1,8-naphthyridin-2(1H)-one]
113 to 116 °C: melting point
4: Herbicidal effect index, Echinochloa crus-galli (Echinochloa crus-galli)
3: Herbicidal effect index, Setaria viridis (Setaria viridis [8])
5: Herbicidal effect index, Abutilon theoprasti [1] | Herbicidal effect index, Amaranthus retroflexus (Amaranthus retroflexus [2]) | Herbicidal effect index, Echinochloa crus-galli [3] | Herbicidal effect index, Scirpus juncoides [4] | Herbicidal effect index, Monochoria vaginalis [5] | Herbicidal effect index, Echinochloa oryzicola [6] | Herbicidal effect index, Setaria viridis (Setaria viridis [7]) | Herbicidal effect index, Abutilon thophrasti [9] | Herbicidal effect index, Amaranthus retroflexus (Amaranthus retroflexus [10])

COc1ccc(-n2c(=O)c(C(=O)C3=C(O)CCCC3=O)cc3cccnc32)cn1 [II-92, 3-(2-hydroxy-6-oxo-1-cyclohexenecarbonyl)-1-(6-methoxy-3-pyridinyl)-1,8-naphthyridin-2(1H)-one]
4: Herbicidal effect index, Setaria viridis (Setaria viridis [8])
5: Herbicidal effect index, Echinochloa crus-galli (Echinochloa crus-galli) | Herbicidal effect index, Abutilon theoprasti [1] | Herbicidal effect index, Amaranthus retroflexus (Amaranthus retroflexus [2]) | Herbicidal effect index, Echinochloa crus-galli [3] | Herbicidal effect index, Scirpus juncoides [4] | Herbicidal effect index, Monochoria vaginalis [5] | Herbicidal effect index, Echinochloa oryzicola [6] | Herbicidal effect index, Setaria viridis (Setaria viridis [7]) | Herbicidal effect index, Abutilon thophrasti [9] | Herbicidal effect index, Amaranthus retroflexus (Amaranthus retroflexus [10])
220 to 222 °C: melting point

O=C1CCCC(O)=C1C(=O)c1cc2cccnc2n(-c2ccc3c(c2)OCCO3)c1=O [II-118, 1-(2,3-dihydrobenzo[b][1,4]dioxin-6-yl)-3-(2-hydroxy-6-oxo-1-cyclohexenecarbonyl)-1,8-naphthyridin-2(1H)-one]
226 to 228 °C: melting point
5: Herbicidal effect index, Echinochloa crus-galli (Echinochloa crus-galli) | Herbicidal effect index, Abutilon theoprasti [1] | Herbicidal effect index, Amaranthus retroflexus (Amaranthus retroflexus [2]) | Herbicidal effect index, Echinochloa crus-galli [3] | Herbicidal effect index, Scirpus juncoides [4] | Herbicidal effect index, Monochoria vaginalis [5] | Herbicidal effect index, Echinochloa oryzicola [6] | Herbicidal effect index, Setaria viridis (Setaria viridis [7]) | Herbicidal effect index, Setaria viridis (Setaria viridis [8]) | Herbicidal effect index, Abutilon thophrasti [9] | Herbicidal effect index, Amaranthus retroflexus (Amaranthus retroflexus [10])

Cn1c(=O)c(C(=O)C2=C(O)CCCC2=O)cc2ccc(C(F)(F)F)nc21 [II-136, 3-(2-hydroxy-6-oxo-1-cyclohexenecarbonyl)-1-methyl-7-(trifluoromethyl)-1,8-naphthyridin-2(1H)-one]
5: Herbicidal effect index, Echinochloa crus-galli (Echinochloa crus-galli) | Herbicidal effect index, Abutilon theoprasti [1] | Herbicidal effect index, Amaranthus retroflexus (Amaranthus retroflexus [2]) | Herbicidal effect index, Echinochloa crus-galli [3] | Herbicidal effect index, Scirpus juncoides [4] | Herbicidal effect index, Monochoria vaginalis [5] | Herbicidal effect index, Echinochloa oryzicola [6] | Herbicidal effect index, Amaranthus retroflexus (Amaranthus retroflexus [10])
194 to 196 °C: melting point
4: Herbicidal effect index, Setaria viridis (Setaria viridis [7]) | Herbicidal effect index, Setaria viridis (Setaria viridis [8]) | Herbicidal effect index, Abutilon thophrasti [9]
